These are literature values, as cited in patent US20110281813A1, “METHOD OF TREATING C-KIT POSITIVE RELAPSED ACUTE MYELOID LEUKEMIA” (priority 2008, published 2011).

In this series the test system is relapsed/ refractory AML.

Structures can show the parent of a compound that is named as a salt.

As to `Cc1ccc(NC(=O)c2ccc(CN3CCN(C)CC3)cc2)cc1Nc1nccc(-c2cccnc2)n1` [Imatinib mesylate, 4-(4-methylpiperazin-1-ylmethyl)-N-[4-methyl-3-(4-(pyridin-3-yl)pyrimidin-2-ylamino)phenyl]-benzamide], the single agent activity result is on record as “has single agent activity”.
